Data from PMC3878827, “Synthesis and biological characterisation of ^18F-SIG343 and ^18F-SIG353, novel and high selectivity σ2 radiotracers, for tumour imaging properties” (EJNMMI Research, 2013).

Legend:
[1] = system: A375 (human amelanotic melanoma) cells; experiment: Cell uptake studies in A375 cells; type: cell-based
Description: (§1) A375 (human amelanotic melanoma) cells were purchased from American Type Culture Collection (Manassas, VA, USA) and cultured in RPMI-1640 medium (Sigma-Aldrich, St. Louis, MO, USA) supplemented with 10% foetal calf serum (Invitrogen, CA, USA) and 2 mM L-glutamine (Sigma). Cells were maintained in 175 cm^2 flasks in at 37°C in 5% CO2:95% atmosphere humidified incubator and grown to sub-confluent monolayers before being detached using trypsin for use in animal models.
In 24-well culture plates, 2.5 × 10^5 cells were seeded in complete medium and left to attach overnight. The following day, the number of cells per well was counted in triplicate. Before incubation with the radiotracer, the growth media was removed and the cells were washed once with warm PBS to remove all traces of growth media. ^18F-SIG343 or ^18F-SIG353 was formulated in warm PBS containing 0.1% Tween-80. Freshly prepared radiotracer (0.37 MBq in 500 μL) was added and the cells were incubated at 37°C for 2, 15, 30, 60 and 120 min. Uptake was terminated by removing the tracer solution and washing cells with ice-cold PBS. Subsequently, the cells were lysed with 500 μL of 0.2 N NaOH. The radioactivity in the cell lysate was measured with a Wallac 1480 γ-counter (PerkinElmer, MA, USA). The results were expressed as percentage of applied dose per 1 × 10^5 cells. All activities were corrected for decay. Optimal uptake time will be selected for inhibition cell uptake studies.

[2] = Biodistribution studies in A375 tumour-bearing mice; type: in vivo, Balb/C nude mice; settings: for Biodistribution, Blood / Biodistribution, Brain / Biodistribution, Femur / Biodistribution, Heart / Biodistribution, Kidneys / Biodistribution, Liver / Biodistribution, Lungs / Biodistribution, Ovaries / Biodistribution, Pancreas / Biodistribution, Spleen / Biodistribution, Tumour: i.v., ± SEM, n = 5
Description: Female Balb/C nude mice aged 5 to 6 weeks old were obtained from the Animal Resource Centre (Perth, Australia). The animals were kept at a constant temperature of 22°C ± 2°C on a 12/12 h light/dark cycle with lights on at 09:00 am. Food and water were freely available. After a week of acclimatisation, mice were injected subcutaneously in the left flank with 1 × 10^6 A375 human amelanotic melanoma cells, in 100 μL of Ca^2+/Mg^2+-free phosphate buffered saline. The procedure was performed without anaesthetic. For in vivo studies, A375 tumour-bearing mice were used 26 days after tumour inoculation.
Tumour-bearing mice were used to examine the tissue distribution of radioactivity after intravenous injection into the tail vein of 1 MBq of ^18F-SIG343 or ^18F-SIG353 in 100 μL of saline. At 15, 30, 60, and 120 min post injection of the radiotracer, groups of mice (n = 5) were sacrificed by CO2 administration followed by cervical […] and dissection. Selected organs were weighed, and the radioactivity was measured using a γ-counter. The percentage of injected dose (%ID) was calculated by comparison with suitable dilutions of the injected dose. Radioactivity concentrations were expressed as percentage of injected dose per gram of wet tissue (%ID/g), assuming a uniform density of 1 g/cm^3. Data were corrected for the radioactivity decay and tail injected dose and normalised for the standard mouse body weight (20 g). The remaining activity in the carcass was also determined in order to obtain the total activity in the mouse (background activity) at each time point.
Selected tumour-to-organ (tumour-to-blood and tumour-to-muscle) uptake ratios (TORs), were calculated by dividing the tumour radioactivity concentration (%ID/g) by the radioactivity concentration in the respective organ at time t. Comparisons of organ radioactivity concentrations (%ID/g) and TORs in the biodistribution studies or %ID/cc in PET imaging studies between the two radiotracers were performed using separate unpaired, two-tailed Student's t tests, matched organs and time points.

[3] = system: A375 (human amelanotic melanoma) cells; experiment: Cell uptake inhibition studies in A375 cells with competing σ ligands; type: cell-based; settings: 15 min
Description: as §1
Cells were prepared as described for uptake studies. Prior to the addition of the radiotracer, 400 μL of blocking drug (6.25 μmol/L in PBS) or PBS (for controls) was added to the wells. Freshly prepared radiotracer (0.37 MBq in 100 μL) was added, and the cells were incubated at 37°C for 15 min as the optimal time previously determined by the cell uptake studies. Uptake was terminated as described for uptake studies. The percentage of uptake in the treatment groups relative to the control group was determined.

[4] = declined after 60 min (up to 120 min)

Compound: COc1cc2c(cc1OC)CN(CCCCN1C(=O)c3ccc([18F])cc3C1=O)CC2 [^18F-SIG343]
- Cell uptake, percentage of applied dose per 1 × 10^5 cells ([1]; after 2 min, 37°C): approximately 2%
- Cell uptake, percentage of applied dose per 1 × 10^5 cells ([1]; between 15 and 60 min (peak/plateau)): 2%
- Cell uptake, percentage of applied dose per 1 × 10^5 cells [1, 4]: 1.6%
- Biodistribution, Blood ([2]; 15 min post injection): 0.9 ± 0.1 %ID/g
- Biodistribution, Brain ([2]; 15 min post injection): 9.6 ± 0.2^ *** %ID/g
- Biodistribution, Femur ([2]; 15 min post injection): 4.5 ± 0.4 %ID/g
- Biodistribution, Heart ([2]; 15 min post injection): 5.5 ± 0.4 %ID/g
- Biodistribution, Kidneys ([2]; 15 min post injection): 26.1 ± 0.6 %ID/g
- Biodistribution, Liver ([2]; 15 min post injection): 16.0 ± 0.9^ ** %ID/g
- Biodistribution, Lungs ([2]; 15 min post injection): 30.3 ± 1.2^ *** %ID/g
- Biodistribution, Ovaries ([2]; 15 min post injection): 10.8 ± 1.8 %ID/g
- Biodistribution, Pancreas ([2]; 15 min post injection): 42.9 ± 2.8^ * %ID/g
- Biodistribution, Spleen ([2]; 15 min post injection): 14.6 ± 1.2 %ID/g
- Biodistribution, Tumour ([2]; 15 min post injection): 3.1 ± 0.5 %ID/g
- Biodistribution, Blood ([2]; 30 min post injection): 0.7 ± 0.04 %ID/g
- Biodistribution, Brain ([2]; 30 min post injection): 8.8 ± 0.6^ *** %ID/g
- Biodistribution, Femur ([2]; 30 min post injection): 4.3 ± 0.2 %ID/g
- Biodistribution, Heart ([2]; 30 min post injection): 3.5 ± 0.2^ ** %ID/g
- Biodistribution, Kidneys ([2]; 30 min post injection): 19.8 ± 0.9^ *** %ID/g
- Biodistribution, Liver ([2]; 30 min post injection): 21.9 ± 0.8^ *** %ID/g
- Biodistribution, Lungs ([2]; 30 min post injection): 17.4 ± 0.7^ *** %ID/g
- Biodistribution, Ovaries ([2]; 30 min post injection): 14.0 ± 2.2 %ID/g
- Biodistribution, Pancreas ([2]; 30 min post injection): 50.2 ± 2.0^ *** %ID/g
- Biodistribution, Spleen ([2]; 30 min post injection): 15.2 ± 1.1^ * %ID/g
- Biodistribution, Tumour ([2]; 30 min post injection): 3.0 ± 0.1^ * %ID/g
- Biodistribution, Blood ([2]; 60 min post injection): 0.6 ± 0.1 %ID/g
- Biodistribution, Brain ([2]; 60 min post injection): 7.1 ± 0.4^ *** %ID/g
- Biodistribution, Femur ([2]; 60 min post injection): 3.8 ± 0.1 %ID/g
- Biodistribution, Heart ([2]; 60 min post injection): 1.9 ± 0.04^ ** %ID/g
- Biodistribution, Kidneys ([2]; 60 min post injection): 12.0 ± 0.6^ ** %ID/g
- Biodistribution, Liver ([2]; 60 min post injection): 15.2 ± 1.1^ *** %ID/g
- Biodistribution, Lungs ([2]; 60 min post injection): 9.9 ± 0.3^ *** %ID/g
- Biodistribution, Ovaries ([2]; 60 min post injection): 13.5 ± 2.2 %ID/g
- Biodistribution, Pancreas ([2]; 60 min post injection): 64.4 ± 3.5^ *** %ID/g
- Biodistribution, Spleen ([2]; 60 min post injection): 12.8 ± 0.9^ *** %ID/g
- Biodistribution, Tumour ([2]; 60 min post injection): 3.5 ± 0.3^ * %ID/g
- Biodistribution, Blood ([2]; 120 min post injection): 0.4 ± 0.01 %ID/g
- Biodistribution, Brain ([2]; 120 min post injection): 5.2 ± 0.7^ *** %ID/g
- Biodistribution, Femur ([2]; 120 min post injection): 3.2 ± 0.1 %ID/g
- Biodistribution, Heart ([2]; 120 min post injection): 1.1 ± 0.1 %ID/g
- Biodistribution, Kidneys ([2]; 120 min post injection): 7.5 ± 0.4 %ID/g
- Biodistribution, Liver ([2]; 120 min post injection): 19.8 ± 0.9^ * %ID/g
- Biodistribution, Lungs ([2]; 120 min post injection): 5.0 ± 0.3 %ID/g
- Biodistribution, Ovaries ([2]; 120 min post injection): 11.5 ± 1.4 %ID/g
- Biodistribution, Pancreas ([2]; 120 min post injection): 61.7 ± 3.4^ *** %ID/g
- Biodistribution, Spleen ([2]; 120 min post injection): 8.5 ± 0.2^ *** %ID/g
- Biodistribution, Tumour ([2]; 120 min post injection): 3.9 ± 0.2 %ID/g
- Tumour-to-blood uptake ratio ([2]; at 120 min): eight- to ninefold
- Tumour-to-muscle uptake ratio ([2]; at 120 min): 4
- Change of cell uptake of radiotracer versus control ([3]; competitor (+)-pentazocine 5 μM): no significant blocking effect
- Change of cell uptake of radiotracer versus control ([3]; competitor haloperidol 5 μM): -72%
- Change of cell uptake of radiotracer versus control ([3]; competitor unlabelled SIG343 5 μM): -69%

Compound: COc1cc2c(cc1OC)CN(CCCCCN1C(=O)c3ccc([18F])cc3C1=O)CC2 [^18F-SIG353]
- Cell uptake, percentage of applied dose per 1 × 10^5 cells ([1]; after 2 min, 37°C): approximately 2%
- Cell uptake, percentage of applied dose per 1 × 10^5 cells [1, 4]: 2.3%
- Biodistribution, Blood ([2]; 15 min post injection): 1.2 ± 0.03 %ID/g
- Biodistribution, Brain ([2]; 15 min post injection): 4.4 ± 0.2 %ID/g
- Biodistribution, Femur ([2]; 15 min post injection): 5.3 ± 0.3 %ID/g
- Biodistribution, Heart ([2]; 15 min post injection): 4.5 ± 0.2 %ID/g
- Biodistribution, Kidneys ([2]; 15 min post injection): 23.4 ± 2.0 %ID/g
- Biodistribution, Liver ([2]; 15 min post injection): 23.5 ± 2.0 %ID/g
- Biodistribution, Lungs ([2]; 15 min post injection): 17.4 ± 0.5 %ID/g
- Biodistribution, Ovaries ([2]; 15 min post injection): 10.0 ± 0.9 %ID/g
- Biodistribution, Pancreas ([2]; 15 min post injection): 56.4 ± 4.7 %ID/g
- Biodistribution, Spleen ([2]; 15 min post injection): 15.7 ± 1.1 %ID/g
- Biodistribution, Tumour ([2]; 15 min post injection): 3.8 ± 0.3 %ID/g
- Biodistribution, Blood ([2]; 30 min post injection): 1.0 ± 0.1 %ID/g
- Biodistribution, Brain ([2]; 30 min post injection): 2.3 ± 0.1 %ID/g
- Biodistribution, Femur ([2]; 30 min post injection): 4.7 ± 0.2 %ID/g
- Biodistribution, Heart ([2]; 30 min post injection): 2.5 ± 0.1 %ID/g
- Biodistribution, Kidneys ([2]; 30 min post injection): 13.3 ± 0.8 %ID/g
- Biodistribution, Liver ([2]; 30 min post injection): 33.0 ± 1.8 %ID/g
- Biodistribution, Lungs ([2]; 30 min post injection): 8.6 ± 0.4 %ID/g
- Biodistribution, Ovaries ([2]; 30 min post injection): 11.8 ± 1.5 %ID/g
- Biodistribution, Pancreas ([2]; 30 min post injection): 72.8 ± 2.4 %ID/g
- Biodistribution, Spleen ([2]; 30 min post injection): 12.0 ± 0.6 %ID/g
- Biodistribution, Tumour ([2]; 30 min post injection): 3.8 ± 0.3 %ID/g
- Biodistribution, Blood ([2]; 60 min post injection): 0.7 ± 0.02 %ID/g
- Biodistribution, Brain ([2]; 60 min post injection): 1.3 ± 0.01 %ID/g
- Biodistribution, Femur ([2]; 60 min post injection): 3.8 ± 0.2 %ID/g
- Biodistribution, Heart ([2]; 60 min post injection): 1.7 ± 0.02 %ID/g
- Biodistribution, Kidneys ([2]; 60 min post injection): 8.7 ± 0.3 %ID/g
- Biodistribution, Liver ([2]; 60 min post injection): 32.6 ± 1.0 %ID/g
- Biodistribution, Lungs ([2]; 60 min post injection): 6.1 ± 0.1 %ID/g
- Biodistribution, Ovaries ([2]; 60 min post injection): 9.6 ± 1.5 %ID/g
- Biodistribution, Pancreas ([2]; 60 min post injection): 94.3 ± 4.2 %ID/g
- Biodistribution, Spleen ([2]; 60 min post injection): 7.7 ± 0.4 %ID/g
- Biodistribution, Tumour ([2]; 60 min post injection): 4.6 ± 0.2 %ID/g
- Biodistribution, Blood ([2]; 120 min post injection): 0.7 ± 0.03 %ID/g
- Biodistribution, Brain ([2]; 120 min post injection): 0.8 ± 0.02 %ID/g
- Biodistribution, Femur ([2]; 120 min post injection): 3.9 ± 0.1 %ID/g
- Biodistribution, Heart ([2]; 120 min post injection): 1.3 ± 0.1 %ID/g
- Biodistribution, Kidneys ([2]; 120 min post injection): 7.1 ± 0.2 %ID/g
- Biodistribution, Liver ([2]; 120 min post injection): 24.1 ± 1.4 %ID/g
- Biodistribution, Lungs ([2]; 120 min post injection): 4.7 ± 0.2 %ID/g
- Biodistribution, Ovaries ([2]; 120 min post injection): 12.2 ± 3.1 %ID/g
- Biodistribution, Pancreas ([2]; 120 min post injection): 119.2 ± 1.6 %ID/g
- Biodistribution, Spleen ([2]; 120 min post injection): 5.5 ± 0.2 %ID/g
- Biodistribution, Tumour ([2]; 120 min post injection): 4.8 ± 0.4 %ID/g
- Tumour-to-blood uptake ratio ([2]; at 120 min): eight- to ninefold
- Change of cell uptake of radiotracer versus control ([3]; any of the competing σ ligands ((+)-pentazocine, haloperidol, unlabelled SIG353) 5 μM): not significantly reduced
